The results in this text go back to patent US20220072011A1, “TREATMENTS OF ACCUMULATED FAT WITH DEOXYCHOLIC ACID AND SALTS THEREOF” (Allergan Sales, LLC, priority 2015, published 2022).

The structures appear in SMILES notation.

The data set in a line: Precipitate formation from sodium deoxycholate solutions after 1 week of storage (visual inspection). Particulars: 1 week storage. The class given is physicochemical. As to the method:
Solutions of sodium deoxycholate at different concentration were evaluated for precipitate formation after 1 week of storage. […] By visual inspection, the amount of precipitation can be rated as tabulated below.

For the compound `C[C@H](CCC(=O)[O-])[C@H]1CCC2C3CC[C@@H]4C[C@H](O)CC[C@]4(C)C3C[C@H](O)[C@@]21C.[Na+]` (stereo partly drawn) [Sodium Deoxycholate, sodium (4R)-4-((3R,5R,10S,12S,13R,17R)-3,12-dihydroxy-10,13-dimethylhexadecahydro-1H-cyclopenta[a]phenanthren-17-yl)pentanoate], the “Precipitation, Comment” value runs as follows: (0.5% w/v) “Significant amounts of precipitate visible to the naked eye”; (1.0% w/v) “Significant amounts of precipitate visible to the naked eye”.
